Measurements published in ChEMBL document CHEMBL3227967, “Quantitative structure-activity relationships in 1-aryl-2-(alkylamino)ethanol antimalarials” (J Med Chem, 1979).

Test system: Plasmodium berghei
Experiment: Antimalarial activity against Plasmodium berghei
Format: functional

SMILES	log(1/C)
COc1cc2c(C(O)CC3CCCCN3)cc(-c3ccc(Cl)c(Cl)c3)cc2cc1Cl (configuration not stated)	3.14
CCCCCCCN(CCCCCCC)CC(O)c1cc2cccnc2c2ccccc12 (configuration not stated)	2.9
CCCCN(CCCC)CC(O)c1cc2ccc(C(F)(F)F)cc2c2sccc12 (configuration not stated)	2.98
CCCCN(CCCC)CC(O)c1cc2ccsc2c2cc(C(F)(F)F)ccc12 (configuration not stated)	3.5
CCCCN(CCCC)CC(O)c1cc2ccsc2c2cc(Br)ccc12 (configuration not stated)	3.37
CCCCCCCN(CCCCCCC)CC(O)c1ccc(Cl)c2cc3cccc(Cl)c3cc12 (configuration not stated)	3.56
CCCCN(CCCC)CC(O)c1ccc(Cl)c2cc3cccc(Cl)c3cc12 (configuration not stated)	3.39
CCCCCCCN(CCCCCCC)CC(O)c1cccc2cc3ccccc3cc12 (configuration not stated)	2.99
CCCCCCCN(CCCCCCC)CC(O)c1c2cccc(Cl)c2cc2c(Cl)cccc12 (configuration not stated)	3.92
CCCCCCCN(CCCCCCC)CC(O)c1c2ccccc2c(Cl)c2ccccc12 (configuration not stated)	3.7
CCCCN(CCCC)CC(O)c1c2ccccc2c(Cl)c2ccccc12 (configuration not stated)	3.51
CCCCCCCCCN(CCCCCCCCC)CC(O)c1c2ccccc2cc2ccccc12 (configuration not stated)	3.24
CCCCCCCN(CCCCCCC)CC(O)c1c2ccccc2cc2ccccc12 (configuration not stated)	3.07
CCCCN(CCCC)CC(O)c1c2ccccc2cc2cc(Cl)c(Cl)cc12 (configuration not stated)	2.89
CCCCN(CCCC)CC(O)c1cc(-c2ccc(Cl)c(Cl)c2)cc2cc(Cl)ccc12 (configuration not stated)	4.81
CCCCN(CCCC)CC(O)c1cc(-c2ccc(Cl)cc2)cc2cc(Cl)ccc12 (configuration not stated)	4.24
CCCCCCCN(CCCCCCC)CC(O)c1cc(-c2ccc(Cl)cc2)cc2ccc(OC)cc12 (configuration not stated)	4.18
CCCCN(CCCC)CC(O)c1cc(-c2ccc(Cl)cc2)cc2ccc(OC)cc12 (configuration not stated)	3.9
CCCCN(CCCC)CC(O)c1cc(-c2ccc(Cl)cc2)cc2ccccc12 (configuration not stated)	3.87
CCN(CC)CC(O)c1cc(-c2ccc(Cl)cc2)cc2ccccc12 (configuration not stated)	3.51
CCCCCCCN(CCCCCCC)CC(O)c1cc(-c2ccc(Cl)cc2)cc2ccccc12 (configuration not stated)	3.35
CCCCNCC(O)c1cc(-c2ccc(Cl)cc2)cc2cc(Cl)ccc12 (configuration not stated)	3.29
CCCCCCCN(CCCCCCC)CC(O)c1cc(-c2ccc(Cl)cc2)cc2cc(Cl)c(OC)cc12 (configuration not stated)	3.31

SMILES	log(1/C)
CCCCN(CCCC)CC(O)c1cc(-c2ccc(Cl)c(Cl)c2)cc2cc(Cl)c(OC)cc12 (configuration not stated)	3.06
CCCCN(CCCC)CC(O)c1cc(-c2ccc(Cl)cc2)cc2cc(Cl)c(OC)cc12 (configuration not stated)	2.96
COc1cc2c(C(O)CC3CCCCN3)cc(-c3ccc(Cl)cc3)cc2cc1Cl (configuration not stated)	3
CCCCN(CCCC)CC(O)c1ccc(-c2ccc(Cl)cc2)c2c(Cl)cc(Cl)cc12 (configuration not stated)	3.33
CCCCN(CCCC)CC(O)c1cccc2c1ccc1cc(Cl)c(Cl)cc12 (configuration not stated)	2.96
CCCCCCCN(CCCCCCC)CC(O)c1cccc2c1cc(Cl)c1ccc(Cl)cc12 (configuration not stated)	2.96
CCCCN(CCCC)CC(O)c1cc2c(Cl)cc(Cl)cc2c2ncccc12 (configuration not stated)	2.94
CCCCN(CCCC)CC(O)c1cc2c(Cl)cc(Cl)cc2c2cnccc12 (configuration not stated)	2.94
CCCCN(CCCC)CC(O)/C(=C/c1ccc(C(F)(F)F)cc1)c1ccc(C(F)(F)F)cc1 (configuration not stated)	3.22
CCCCN(CCCC)CC(O)c1cc(Cl)cc2c1-c1ccc(Cl)cc1C2 (configuration not stated)	3.97
CCCCN(CCCC)CC(O)c1cc(Cl)cc2c1-c1ccc(Cl)cc1C2=O (configuration not stated)	3.39
CCCCN(CCCC)CC(O)c1c(Cl)cc(Cl)c2nc(-c3ccc(Cl)cc3)ccc12 (configuration not stated)	3.6
CCCCN(CCCC)CC(O)c1c(Cl)cc2ccc(-c3ccc(Cl)cc3)nc2c1Cl (configuration not stated)	3.02
CCCCN(CCCC)CC(O)c1cc(Cl)cc2ccc(-c3ccc(Cl)cc3)nc12 (configuration not stated)	2.9
CCCCNCC(O)c1cc(-c2cccc(C(F)(F)F)c2)nc(C(F)(F)F)c1 (configuration not stated)	3.69
CCCCN(CCCC)CC(O)c1cc2ccc(C(F)(F)F)cc2c2ccsc12 (configuration not stated)	2.81
CCCCCCCN(CCCCCCC)CC(O)c1cc2ccc(C(F)(F)F)cc2c2ccsc12 (configuration not stated)	2.69
CCCCN(CCCC)CC(O)c1cc2ccc(Br)cc2c2sccc12 (configuration not stated)	2.82
CCCCCCCN(CCCCCCC)CC(O)c1cc(Cl)cc2cc3ccccc3cc12 (configuration not stated)	3.1
CCCCN(CCCC)CC(O)c1cc(Cl)cc2cc3ccccc3cc12 (configuration not stated)	2.72
CCCCN(CCCC)CC(O)c1c2cccc(Cl)c2cc2c(Cl)cccc12 (configuration not stated)	2.76
CCCCN(CCCC)CC(O)c1cc(Oc2cc(Cl)cc(Cl)c2)cc2c(Cl)cc(Cl)cc12 (configuration not stated)	2.9
CCCCCCN(CCCCCC)CC(O)c1cccc2c1cc(Br)c1ccccc12 (configuration not stated)	2.77

SMILES	log(1/C)
CCCCCCCN(CCCCCCC)CC(O)c1cccc2c1cc(Cl)c1cc(Cl)c(Cl)cc12 (configuration not stated)	2.71
CCCCCCCN(CCCCCCC)CC(O)c1cc2c(Cl)cc(Cl)cc2c2ncccc12 (configuration not stated)	2.86
CCCCN(CCCC)CC(O)c1cc(/C=C/c2ccc(Cl)cc2)nc(C23CC4CC(CC(C4)C2)C3)c1 (configuration not stated)	2.72
CCCN(CCC)CC(O)c1cc2ccc(C(F)(F)F)cc2c2ccsc12 (configuration not stated)	2.82
CCCCCN(CCCCC)CC(O)c1cc2ccc(C(F)(F)F)cc2c2ccsc12 (configuration not stated)	2.69
CCCCCCCN(CCCCCCC)CC(O)c1cc2c(Cl)cc(Cl)cc2c2cc(Cl)sc12 (configuration not stated)	2.67
CCCCN(CCCC)CC(O)c1cc2ccc(Br)cc2c2ccsc12 (configuration not stated)	2.57
CCCCN(CCCC)CC(O)c1cc2ccc(C(F)(F)F)cc2c2cc(C)sc12 (configuration not stated)	2.52
CCCCNCC(O)c1cc2ccc(C(F)(F)F)cc2c2ccsc12 (configuration not stated)	2.51
CCCCCCN(CCCCCC)CC(O)c1cc2ccc(C(F)(F)F)cc2c2ccsc12 (configuration not stated)	2.49
CCCCN(CCCC)CC(O)c1cc2ccc(Br)cc2c2cc(C)sc12 (configuration not stated)	2.44
CCCCN(CCCC)CC(O)c1cc2ccccc2c2ccsc12 (configuration not stated)	2.22
CCCCCCCN(CCCCCCC)CC(O)c1cc2sccc2c2cc(Cl)sc12 (configuration not stated)	2.64
CCCCCCCN(CCCCCCC)CC(O)c1cc2sccc2c2ccsc12 (configuration not stated)	2.58
CCCCN(CCCC)CC(O)c1cc2sccc2c2ccsc12 (configuration not stated)	2.1
CCCCCCCN(CCCCCCC)CC(O)c1cc2c(Cl)cc(Cl)cc2c2sccc12 (configuration not stated)	2.89
CCCCCCCN(CCCCCCC)CC(O)c1cc2ccc(Br)cc2c2sccc12 (configuration not stated)	2.67
CCCCCCCN(CCCCCCC)CC(O)c1cc2ccsc2c2cc(C(F)(F)F)ccc12 (configuration not stated)	2.77
CCCCCCCN(CCCCCCC)CC(O)c1cc2ccsc2c2cc(Br)ccc12 (configuration not stated)	2.68
CCCCN(CCCC)CC(O)c1cc2ccsc2c2ccccc12 (configuration not stated)	2.38
CCCCCCCN(CCCCCCC)CC(O)c1cccc2cc3cccc(Cl)c3cc12 (configuration not stated)	2.36
CCCCN(CCCC)CC(O)c1cccc2cc3cc(Cl)c(Cl)cc3cc12 (configuration not stated)	2.48
CCCCN(CCCC)CC(O)c1cccc2cc3cccc(Cl)c3cc12 (configuration not stated)	2.26

SMILES	log(1/C)
CCCCCCCN(CCCCCCC)CC(O)c1cccc2cc3c(Cl)cccc3cc12 (configuration not stated)	2.44
CCCCN(CCCC)CC(O)c1cccc2cc3ccccc3cc12 (configuration not stated)	2.27
CCCCN(CCCC)CC(O)c1cccc2cc3c(Cl)cccc3cc12 (configuration not stated)	2.1
CCCCN(CCC)CC(O)c1ccc2cc3ccccc3cc2c1 (configuration not stated)	2.49
CCCCCCCN(CCCCCCC)CC(O)c1ccc2cc3ccccc3cc2c1 (configuration not stated)	2.62
CCCCNCCC(O)c1c2ccccc2c(Cl)c2cc(C(F)(F)F)ccc12 (configuration not stated)	3
CCCCN(CCCC)CC(O)c1c2ccccc2c(Br)c2ccccc12 (configuration not stated)	2.88
CCCCNCCC(O)c1c2ccccc2c(Cl)c2ccccc12 (configuration not stated)	2.49
CCCCN(CCCC)CC(O)c1c2ccccc2cc2ccccc12 (configuration not stated)	2.35
CCCCCCCN(CCCCCCC)CC(O)c1cc(-c2ccc(Cl)c(Cl)c2)cc2cc(Cl)ccc12 (configuration not stated)	2.6
CCCCCCCN(CCCCCCC)CC(O)c1cc(-c2ccc(Cl)c(Cl)c2)cc2cc(Cl)c(OC)cc12 (configuration not stated)	2.58
CCCCN(CCCC)CC(O)c1cc(Oc2ccc(Cl)cc2)c(Br)c2cc(Cl)ccc12 (configuration not stated)	2.62
CCCCN(CCCC)CC(O)c1cc(Oc2ccc(Cl)cc2)cc2c(Cl)cc(Cl)cc12 (configuration not stated)	2.57
CCCCN(CCCC)CC(O)c1cc(Oc2cccc(C(F)(F)F)c2)cc2c(Cl)cc(Cl)cc12 (configuration not stated)	2.52
CCCCN(CCCC)CC(O)c1cc(Oc2ccc(Cl)c(Cl)c2)cc2c(Cl)cc(Cl)cc12 (configuration not stated)	2.49
CCCCN(CCCC)CC(O)c1cc(C(=O)c2ccc(Cl)cc2)cc2c(Cl)cc(Cl)cc12 (configuration not stated)	2.66
CCCCCCCCN(CCCCCCCC)CC(O)c1ccc(Br)c2ccccc12 (configuration not stated)	2.24
CCCCCN(CCCCC)CC(O)c1ccc(Br)c2ccccc12 (configuration not stated)	2.16
CCCCCCCN(CCCCCCC)CC(O)c1cccc2c1ccc1ccccc12 (configuration not stated)	2.58
CCCCCCCN(CCCCCCC)CC(O)c1cccc2c1ccc1cc(Cl)c(Cl)cc12 (configuration not stated)	2.55
CCCCCCCN(CCCCCCC)CC(O)c1cccc2c1ccc1ccc(Cl)cc12 (configuration not stated)	2.54
CCCCCCCN(CCCCCCC)CC(O)c1c(Br)ccc2c1ccc1ccccc12 (configuration not stated)	2.5
CCCCCCCN(CCCCCCC)CC(O)c1cccc2c1cc(Cl)c1ccccc12 (configuration not stated)	2.5
